Reference: US8039648B2, “Compounds used as dyes comperable to Alexa Fluor 350 dyes” (Pierce Biotechnology, Inc., priority 2009, dated 2011)
Counter-ions that a name gives are not always drawn.

Columns and labels:
[1] = Absorbance spectra of the NHS dyes in PBS buffer (Example 8); format: physicochemical; conditions: PBS buffer pH 7.2, 10 mg/ml in DMF diluted 1:1000
Description: Each of NHS-AMCA (MW=330 g/mole), V07-09111-NHS “8-isomer” (MW=874.1 g/mole), V07-0144-NHS “6-isomer” (MW=874.1 g/mole) and Alexa Fluor 350-NHS, Molecular Probes (Product #A10168) were reconstituted in DMF at 10 mg/ml and then diluted 1:1000 in PBS buffer (100 mM sodium phosphate, 150 mM NaCl; pH 7.2). Absorbance of the sample was evaluated from 440 nm to 240 nm on a UV Cary Spectrophotometer (Varian).

[2] = test system: biotin and mouse IgG coated white 96-well plates; experiment: Plate-based functional testing of streptavidin and GAM conjugates (Example 12); format: binding; conditions: for signal sensitivities and intensities of bound conjugates compared to conjugates made with AMCA-NHS: GAM and SA conjugates made with the dye, 4 μg/ml, ex 346/em 442
Description: Streptavidin and GAM conjugates made in Example 11 were analyzed on biotin and mouse IgG coated white 96-well plates. The plates were coated by making a 1:1 serial dilution of biotinylated bovine serum albumin (BSA, Thermo Scientific) and mouse IgG with starting concentrations of 2 μg/ml and 10 μg/ml, respectively. One hundred μl of each dilution was added per well. The last column on each plate was considered blank (PBS buffer only). The plates were incubated overnight at 4° C. and then blocked by washing 3×200 μl with SuperBlock Blocking Buffer in PBS (Thermo Scientific). Plates were washed 2×200 μl PBS-Surfact-Amp 20 and 1×100 μl PBS. All of the conjugates were diluted to 4 μg/ml in PBS buffer, added to the plates (100 μl/well) and incubated for one hour at room temperature (RT) (about 20° C. to about 22° C.). The plates were then washed 2×200 μl with PBS containing 0.05% Surfact-Amp 20 and 1×200 μl PBS. Finally 100 μl PBS buffer was added to the wells. The fluorescence intensity of the bound conjugate was measured on Tecan Safire using optimal Alexa Fluor 350 setting (ex 346/em 442) and optimal gain. FIGS. 7A and 7B show relative fluorescent units (RFU) and signal to background ratios (S/B), respectively, of goat anti-mouse antibodies (GAM) conjugated to amino-methyl-coumarin-acetate (AMCA), V07-09111-NHS, V07-09144-NHS, and Alexa Fluor 350-NHS. FIGS. 7C and 7D show RFU and S/B, respectively, of streptavidin (SA) conjugated to AMCA, V07-09111, V07-09144, and Alexa Fluor 350.

[3] = UV-Vis absorption and emission maxima given with the synthesis examples; format: physicochemical
[4] = test system: Lamin A; experiment: Immunofluorescence detection of Lamin A in HeLa cells with dye-GAM conjugates (Example 13); format: cell-based, human; conditions: GAM conjugates made with the dye, 4 μg/ml, similar molar excesses
Description: Lamin A was stained in HeLa cells to compare […]-09111-GAM and […]-09144GAM to AMCA-GAM and Alexa Fluor 350-GAM. HeLa cells were seeded at about 10,000 cells/well in a 96-well clear bottom collagen coated tissue culture plate (BD Falcon BioCoat collagen) and cultured overnight. To fix the cells, the medium was removed and replaced at 100 μl/well with freshly prepared 4% paraformaldehyde (EMS Product #15710-S) diluted in 8 mM sodium phosphate, 2 mM potassium phosphate, 140 mM sodium chloride and 10 mM potassium chloride (PBS pH 7.4) and the cells were incubated at room temperature for 15 minutes. After 15 minutes, the cells were washed 3 times with PBS. After removal of PBS the cells were permeabilized with 100 μl/well of PBS containing 0.1% Surfact-Amps X-100. The permeabilization was carried out at room temperature (RT) for 15 minutes and then the cells were washed two times with PBS. The cells were blocked at RT for 30 minutes with (100 μl/well) PBS containing 0.1% Triton X-100 and supplemented with 2% of BlockerTM BSA (Thermo Scientific). […] The images shown in FIGS. 8A-H were acquired using the appropriate shift free optical filter set with a […] on Zeiss Axio Observer Z1 fluorescence microscope using an ORCA-ER-1394 Hamamatsu, CCD Digital Camera and the AxioVison Release 4.7 Software. […]

[5] = Absorption and emission spectra in water and ethanol (Example 9); format: physicochemical; conditions: for emission spectrum maximum: excitation 345 nm
Description: Absorption spectra of compounds V07-09111 and V07-09144 (concentrations between 10 μM and 50 μM) in water and ethanol (spectral grade) were recorded (Analytik Jena Specord 205 absorption spectrometer, quartz cuvettes with a pathlength of 1 cm). For emission spectra determination, the solutions were diluted in PBS (100 mM, pH 7.4, 100 mM sodium chloride, 5 mM sodium azide) to an absorbance of around 0.1 at a 1 cm pathlength; emission spectra were recorded on a JASCO FP-6600 fluorescence spectrometer; excitation wavelength 345 nm, excitation and emission slits were 3 nm and 6 nm, respectively. Both absorption and emission spectra were normalized to the maxima for presentation in FIGS. 2, 3, 4, and 5.
FIGS. 2 and 3 show the absorbance and emission spectra of V07-09144 in water and ethanol, respectively. FIGS. 4 and 5 show the absorbance and emission spectra of V07-09111 in water and ethanol, respectively. The absorbance and emission spectra of V07-09111 are 350 nm and 430 nm in water, and 351 nm and 443 nm in ethanol, respectively. The absorbance and emission spectra of V07-09144 are 350 nm and 440 nm in water, and 351 nm and 443 nm in ethanol, respectively.

Row | SMILES | absorbance maxima (AbsMax) [1] [nm] | λem ([3]; UV-Vis (PBS)) [nm] | λmax ([3]; UV-Vis (PBS)) [nm] | signal sensitivities and intensities of bound conjugates compared to conjugates made with AMCA-NHS [2] | also measured
1 | Cc1c(CC(=O)ON2C(=O)CCC2=O)c(=O)oc2cc(N)ccc12 [NHS-AMCA, succinimidyl-7-amino-4-methylcoumarin-3-acetate, reference compound] | 349 |  |  |  | 
2 | Nc1ccc2c3c(c(=O)oc2c1S(=O)(=O)O)CCC3C(CC(=O)O)S(=O)(=O)[O-].[Na+] (stereo not drawn) [V07-09089, 3-(7-amino-4-oxo-6-sulfo-1,2,3,4-tetrahydro-cyclopenta[c]chromen-1-yl)-3-sulfopropionic acid bis sodium salt] |  | 429 | 352 |  | binding in a functional plate assay among the DY-350 dyes ([2]; comparison among the DY-350 dyes): lower binding in a functional plate assay
3 | Nc1c(S(=O)(=O)O)cc2c3c(c(=O)oc2c1S(=O)(=O)O)CCC3C(CC(=O)O)S(=O)(=O)[O-].[Na+] (stereo not drawn) [V07-09140, 3-(7-amino-4-oxo-6,8-disulfo-1,2,3,4-tetrahydro-cyclopenta[c]chromen-1-yl)-3-sulfo-propionic acid tris sodium salt] |  | 435 | 350 |  | 
4 | CCOC(=O)CCC1CCc2c1c1ccc(NC(=O)OCC)cc1oc2=O (stereo not drawn) [V07-09096, 3-(7-ethoxycarbonylamino-4-oxo-1,2,3,4-tetrahydro-cyclopenta[c]chromen-1-yl)propionic acid ethylester] |  |  |  |  | ε ([3]; in methanol): 23000 L/mol/cm; λem ([3]; in methanol): 393 nm; λmax ([3]; in methanol): 328 nm
5 | Cc1c(CC(=O)ON2C(=O)CCC2=O)c(=O)oc2cc(N)c(S(=O)(=O)O)cc12 [Alexa Fluor 350-NHS, reference compound] | 345 |  |  | higher signal sensitivities and intensities | 
6 | Nc1ccc2c3c(c(=O)oc2c1S(=O)(=O)O)CCC3C(CC(=O)NCCCC(=O)ON1C(=O)CCC1=O)S(=O)(=O)O (stereo not drawn) [V07-09111-NHS, 4-[3-(7-amino-4-oxo-6-sulfo-1,2,3,4-tetrahydro-cyclopenta[c]chromen-1-yl)-3-sulfo-propionylamino]-butyric acid NHS ester bis diisopropyethylammonium salt] | 352 | 430 | 352 | higher signal sensitivities and intensities | specificity of staining and background compared to NHS-AMCA or NHS-Alexa Fluor 350 conjugates [4]: higher specificity of staining for the target with lower background
7 | Nc1ccc2c3c(c(=O)oc2c1S(=O)(=O)O)CCC3C(CC(=O)NCCCC(=O)O)S(=O)(=O)O (stereo not drawn) [V07-09111, 4-[3-(7-amino-4-oxo-6-sulfo-1,2,3,4-tetrahydro-cyclopenta[c]chromen-1-yl)-3-sulfo-propionylamino]-butyric acid] |  | 430 | 352 |  | absorbance spectrum maximum ([5]; in ethanol): 351 nm; emission spectrum maximum ([5]; in ethanol): 443 nm; absorbance spectrum maximum ([5]; in water): 350 nm; emission spectrum maximum ([5]; in water): 430 nm
8 | Nc1cc2oc(=O)c3c(c2cc1S(=O)(=O)O)C(C(CC(=O)NCCCC(=O)ON1C(=O)CCC1=O)S(=O)(=O)O)CC3 (stereo not drawn) [V07-09144-NHS] | 347 |  |  | higher signal sensitivities and intensities | specificity of staining and background compared to NHS-AMCA or NHS-Alexa Fluor 350 conjugates [4]: higher specificity of staining for the target with lower background
9 | Nc1cc2oc(=O)c3c(c2cc1S(=O)(=O)O)C(C(CC(=O)O)S(=O)(=O)O)CC3 (stereo not drawn) [V07-09142, 3-(7-amino-4-oxo-8-sulfo-1,2,3,4-tetrahydro-cyclopenta[c]chromen-1-yl)-3-sulfo propionic acid bis sodium salt] |  | 440 | 349 |  | 
